We go through one compound from paper PMC4325424 (Cancer cell, 2015).

This assay has as its target T1, glutathione peroxidase 1 (GPx1) (Homo sapiens, UniProt P07203).
T1 sequence (P07203 1-203): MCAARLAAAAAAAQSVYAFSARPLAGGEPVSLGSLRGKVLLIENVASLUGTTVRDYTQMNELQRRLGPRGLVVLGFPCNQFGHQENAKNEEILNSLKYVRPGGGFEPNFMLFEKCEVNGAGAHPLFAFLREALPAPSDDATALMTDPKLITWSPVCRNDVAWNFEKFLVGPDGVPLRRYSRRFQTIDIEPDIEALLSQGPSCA
Kind of assay: radiometric […]-fumarate binding to bead-bound flag-GPx1.

Compound `O=C(O)/C=C/C(=O)O` [fumarate] showed a Kd of 75.5 ± 5.22 µM.

Broadly, the Kd is the free concentration of one partner at which half of the binding sites on the other are occupied at equilibrium, for simple one-to-one binding.
